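All cell lines were grown in 96-well plates and treated with compound for 48 hours. GI50: concentration for 50% inhibition of growth. At the TGI there is no net growth.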
Columns and labels:
Experiment in all cases: NCI anticancer screen, dose series, 48 h
UO-31 renal = test system: UO-31 renal
A549 NSCLC = test system: A549 NSCLC
HL-60(TB) leukemia = test system: HL-60(TB) leukemia
SF-539 CNS = test system: SF-539 CNS
OVCAR-5 ovarian = test system: OVCAR-5 ovarian
786-0 renal = test system: 786-0 renal
HCT-15 colon = test system: HCT-15 colon
MCF7 breast = test system: MCF7 breast
HCC-2998 colon = test system: HCC-2998 colon
COLO 205 colon = test system: COLO 205 colon
ACHN renal = test system: ACHN renal
BT-549 breast = test system: BT-549 breast
SK-MEL-28 melanoma = test system: SK-MEL-28 melanoma
CAKI-1 renal = test system: CAKI-1 renal
OVCAR-4 ovarian = test system: OVCAR-4 ovarian
A498 renal = test system: A498 renal
PC-3 prostate = test system: PC-3 prostate
SF-268 CNS = test system: SF-268 CNS
MALME-3M melanoma = test system: MALME-3M melanoma
SNB-19 CNS = test system: SNB-19 CNS
KM12 colon = test system: KM12 colon
UACC-62 melanoma = test system: UACC-62 melanoma
NCI/ADR-RES ovarian = test system: NCI/ADR-RES ovarian
DU-145 prostate = test system: DU-145 prostate
SK-MEL-2 melanoma = test system: SK-MEL-2 melanoma
SK-MEL-5 melanoma = test system: SK-MEL-5 melanoma
NCI-H522 lung = test system: NCI-H522 lung
TK-10 renal = test system: TK-10 renal
UACC-257 melanoma = test system: UACC-257 melanoma
NCI-H23 lung = test system: NCI-H23 lung
OVCAR-3 ovarian = test system: OVCAR-3 ovarian
IGROV1 ovarian = test system: IGROV1 ovarian
SK-OV-3 ovarian = test system: SK-OV-3 ovarian
MDA-MB-231 breast = test system: MDA-MB-231 breast
OVCAR-8 ovarian = test system: OVCAR-8 ovarian
RXF 393 renal = test system: RXF 393 renal
SN12C renal = test system: SN12C renal
HOP-92 NSCLC = test system: HOP-92 NSCLC
HOP-62 NSCLC = test system: HOP-62 NSCLC
MDA-MB-435 = test system: MDA-MB-435
LOX IMVI melanoma = test system: LOX IMVI melanoma
MDA-MB-468 breast = test system: MDA-MB-468 breast
EKVX NSCLC = test system: EKVX NSCLC
SF-295 CNS = test system: SF-295 CNS

Clc1ccc2c(N/N=C/c3c[nH]c4ccc(Br)cc34)ccnc2c1
GI50 (UO-31 renal): 1440 nM | TGI (UO-31 renal): 2770 nM | GI50 (A549 NSCLC): 1580 nM | TGI (A549 NSCLC): 3060 nM | GI50 (HL-60(TB) leukemia): 469 nM | TGI (HL-60(TB) leukemia): 1920 nM | GI50 (SF-539 CNS): 1660 nM | TGI (SF-539 CNS): 3050 nM | GI50 (OVCAR-5 ovarian): 1530 nM | TGI (OVCAR-5 ovarian): 2880 nM | GI50 (786-0 renal): 1440 nM | TGI (786-0 renal): 2880 nM | GI50 (HCT-15 colon): 182 nM | TGI (HCT-15 colon): 343 nM | GI50 (MCF7 breast): 952 nM | TGI (MCF7 breast): 2350 nM | GI50 (HCC-2998 colon): 762 nM | TGI (HCC-2998 colon): 2060 nM | GI50 (COLO 205 colon): 358 nM | TGI (COLO 205 colon): 1290 nM | GI50 (ACHN renal): 1660 nM | TGI (ACHN renal): 3040 nM | GI50 (BT-549 breast): 1480 nM | TGI (BT-549 breast): 2840 nM | GI50 (SK-MEL-28 melanoma): 1590 nM | TGI (SK-MEL-28 melanoma): 2950 nM | GI50 (CAKI-1 renal): 1460 nM | TGI (CAKI-1 renal): 2800 nM | GI50 (OVCAR-4 ovarian): 1770 nM | TGI (OVCAR-4 ovarian): 3380 nM | GI50 (A498 renal): 1870 nM | TGI (A498 renal): 3380 nM | GI50 (PC-3 prostate): 1310 nM | TGI (PC-3 prostate): 2760 nM | GI50 (SF-268 CNS): 1700 nM | TGI (SF-268 CNS): 3530 nM | GI50 (MALME-3M melanoma): 1600 nM | TGI (MALME-3M melanoma): 3010 nM | GI50 (SNB-19 CNS): 1540 nM | TGI (SNB-19 CNS): 2890 nM | GI50 (KM12 colon): 1800 nM | TGI (KM12 colon): 3340 nM | GI50 (UACC-62 melanoma): 1660 nM | TGI (UACC-62 melanoma): 3050 nM | GI50 (NCI/ADR-RES ovarian): 1410 nM | TGI (NCI/ADR-RES ovarian): 2840 nM | GI50 (DU-145 prostate): 924 nM | TGI (DU-145 prostate): 2140 nM | GI50 (SK-MEL-2 melanoma): 1790 nM | TGI (SK-MEL-2 melanoma): 3250 nM | GI50 (SK-MEL-5 melanoma): 1500 nM | TGI (SK-MEL-5 melanoma): 2830 nM | GI50 (NCI-H522 lung): 1790 nM | TGI (NCI-H522 lung): 3370 nM | GI50 (TK-10 renal): 2270 nM | TGI (TK-10 renal): 3780 nM | GI50 (UACC-257 melanoma): 1580 nM | TGI (UACC-257 melanoma): 2970 nM | GI50 (NCI-H23 lung): 1110 nM | TGI (NCI-H23 lung): 2370 nM | GI50 (OVCAR-3 ovarian): 1660 nM | TGI (OVCAR-3 ovarian): 3060 nM | GI50 (IGROV1 ovarian): 1650 nM | TGI (IGROV1 ovarian): 3080 nM | GI50 (SK-OV-3 ovarian): 1570 nM | TGI (SK-OV-3 ovarian): 3030 nM | GI50 (MDA-MB-231 breast): 1240 nM | TGI (MDA-MB-231 breast): 2560 nM | GI50 (OVCAR-8 ovarian): 1800 nM | TGI (OVCAR-8 ovarian): 3350 nM | GI50 (RXF 393 renal): 1420 nM | TGI (RXF 393 renal): 2790 nM | GI50 (SN12C renal): 1750 nM | TGI (SN12C renal): 3170 nM | GI50 (HOP-92 NSCLC): 1330 nM | TGI (HOP-92 NSCLC): 2740 nM | GI50 (HOP-62 NSCLC): 1580 nM | TGI (HOP-62 NSCLC): 3100 nM | GI50 (MDA-MB-435): 1690 nM | TGI (MDA-MB-435): 3100 nM | GI50 (LOX IMVI melanoma): 173 nM | TGI (LOX IMVI melanoma): 330 nM | GI50 (MDA-MB-468 breast): 1240 nM | TGI (MDA-MB-468 breast): 2570 nM | GI50 (EKVX NSCLC): 1160 nM | TGI (EKVX NSCLC): 2400 nM | GI50 (SF-295 CNS): 1610 nM | TGI (SF-295 CNS): 2990 nM

Reference: PubChem BioAssay (NCI)
